{"source": "the supplement of paper PMC10307832", "test_in_all_cases": "relative viability (nuclei count vs DMSO), 5 days (fraction); higher = more cells survive", "key": {"[1]": {"test_system": "NCI-H1650", "how_it_was_run": "(§1)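 Lung cancer cell lines in 1536-well plates got either a single drug or a fixed anchor-drug dose together with five library-drug doses (not always all listed) in √10 steps, by pin tool, on the day after seeding. Nuclei were counted after 5 days, and relative viability is the treated-to-vehicle ratio of nuclei counts. Values are medians of duplicate plates.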"}, "[2]": {"test_system": "COR-L 105", "how_it_was_run": "as §1"}, "[3]": {"test_system": "LU99A", "how_it_was_run": "as §1"}, "[4]": {"test_system": "NCI-H838", "how_it_was_run": "as §1"}, "[5]": {"test_system": "NCI-H2170", "how_it_was_run": "as §1"}, "[6]": {"test_system": "PC-14", "how_it_was_run": "as §1"}, "[7]": {"test_system": "HARA", "how_it_was_run": "as §1"}, "[8]": {"test_system": "NCI-H1666", "how_it_was_run": "as §1"}, "[9]": {"test_system": "EKVX", "how_it_was_run": "as §1"}, "[10]": {"test_system": "LK-2", "how_it_was_run": "as §1"}, "[11]": {"test_system": "CAL-12T", "how_it_was_run": "as §1"}, "[12]": {"test_system": "NCI-H3122", "how_it_was_run": "as §1"}, "[13]": {"test_system": "NCI-H441", "how_it_was_run": "as §1"}, "[14]": {"test_system": "HCC-366", "how_it_was_run": "as §1"}, "[15]": {"test_system": "BEN", "how_it_was_run": "as §1"}, "[16]": {"test_system": "NCI-H2009", "how_it_was_run": "as §1"}, "[17]": {"test_system": "NCI-H2023", "how_it_was_run": "as §1"}, "[18]": {"test_system": "NCI-H1437", "how_it_was_run": "as §1"}, "[19]": {"test_system": "NCI-H727", "how_it_was_run": "as §1"}, "[20]": {"test_system": "NCI-H661", "how_it_was_run": "as §1"}, "[21]": {"test_system": "201T", "how_it_was_run": "as §1"}, "[22]": {"test_system": "COR-L23", "how_it_was_run": "as §1"}, "[23]": {"test_system": "SW 900", "how_it_was_run": "as §1"}}}
{"smiles": "C[C@@H]1CN(CC(=O)Nc2ccc3c(c2)Cc2cccc(-c4cc(=O)cc(N5CCOCC5)o4)c2S3)C[C@H](C)O1", "note": "+ CC(=O)Nc1cccc(-n2c(=O)n(C3CC3)c(=O)c3c(Nc4ccc(I)cc4F)n(C)c(=O)c(C)c32)c1 [Trametinib] (partner 0.02 µM)", "values": [{"measurement": "relative viability", "setting": "[1]; first compound 0.04 µM", "result": 0.535}, {"measurement": "relative viability", "setting": "[1]; first compound 0.1265 µM", "result": 0.548}, {"measurement": "relative viability", "setting": "[1]; first compound 0.4 µM", "result": 0.596}, {"measurement": "relative viability", "setting": "[1]; first compound 4 µM", "result": 0.286}, {"measurement": "relative viability", "setting": "[2]; first compound 0.04 µM", "result": 0.458}, {"measurement": "relative viability", "setting": "[2]; first compound 0.1265 µM", "result": 0.412}, {"measurement": "relative viability", "setting": "[2]; first compound 0.4 µM", "result": 0.416}, {"measurement": "relative viability", "setting": "[2]; first compound 4 µM", "result": 0.428}, {"measurement": "relative viability", "setting": "[3]; first compound 0.04 µM", "result": 0.508}, {"measurement": "relative viability", "setting": "[3]; first compound 0.1265 µM", "result": 0.534}, {"measurement": "relative viability", "setting": "[3]; first compound 0.4 µM", "result": 0.587}, {"measurement": "relative viability", "setting": "[3]; first compound 4 µM", "result": 0.59}, {"measurement": "relative viability", "setting": "[4]; first compound 0.04 µM", "result": 0.688}, {"measurement": "relative viability", "setting": "[4]; first compound 0.1265 µM", "result": 0.488}, {"measurement": "relative viability", "setting": "[4]; first compound 0.4 µM", "result": 0.521}, {"measurement": "relative viability", "setting": "[4]; first compound 4 µM", "result": 0.39}, {"measurement": "relative viability", "setting": "[5]; first compound 0.04 µM", "result": 1.04}, {"measurement": "relative viability", "setting": "[5]; first compound 0.1265 µM", "result": 0.931}, {"measurement": "relative viability", "setting": "[5]; first compound 0.4 µM", "result": 0.877}, {"measurement": "relative viability", "setting": "[5]; first compound 4 µM", "result": 0.847}, {"measurement": "relative viability", "setting": "[6]; first compound 0.04 µM", "result": 0.872}, {"measurement": "relative viability", "setting": "[6]; first compound 0.1265 µM", "result": 0.694}, {"measurement": "relative viability", "setting": "[6]; first compound 0.4 µM", "result": 0.719}, {"measurement": "relative viability", "setting": "[6]; first compound 4 µM", "result": 0.467}, {"measurement": "relative viability", "setting": "[7]; first compound 0.04 µM", "result": 0.785}, {"measurement": "relative viability", "setting": "[7]; first compound 0.1265 µM", "result": 0.654}, {"measurement": "relative viability", "setting": "[7]; first compound 0.4 µM", "result": 0.602}, {"measurement": "relative viability", "setting": "[7]; first compound 4 µM", "result": 0.406}, {"measurement": "relative viability", "setting": "[8]; first compound 0.04 µM", "result": 0.881}, {"measurement": "relative viability", "setting": "[8]; first compound 0.1265 µM", "result": 0.924}, {"measurement": "relative viability", "setting": "[8]; first compound 0.4 µM", "result": 0.91}, {"measurement": "relative viability", "setting": "[8]; first compound 4 µM", "result": 0.738}, {"measurement": "relative viability", "setting": "[9]; first compound 0.04 µM", "result": 0.364}, {"measurement": "relative viability", "setting": "[9]; first compound 0.1265 µM", "result": 0.369}, {"measurement": "relative viability", "setting": "[9]; first compound 0.4 µM", "result": 0.349}, {"measurement": "relative viability", "setting": "[9]; first compound 4 µM", "result": 0.294}, {"measurement": "relative viability", "setting": "[10]; first compound 0.04 µM", "result": 0.874}, {"measurement": "relative viability", "setting": "[10]; first compound 0.1265 µM", "result": 0.756}, {"measurement": "relative viability", "setting": "[10]; first compound 0.4 µM", "result": 0.709}, {"measurement": "relative viability", "setting": "[10]; first compound 4 µM", "result": 0.912}, {"measurement": "relative viability", "setting": "[11]; first compound 0.04 µM", "result": 0.309}, {"measurement": "relative viability", "setting": "[11]; first compound 0.1265 µM", "result": 0.306}, {"measurement": "relative viability", "setting": "[11]; first compound 0.4 µM", "result": 0.304}, {"measurement": "relative viability", "setting": "[11]; first compound 4 µM", "result": 0.205}, {"measurement": "relative viability", "setting": "[12]; first compound 0.04 µM", "result": 0.273}, {"measurement": "relative viability", "setting": "[12]; first compound 0.1265 µM", "result": 0.263}, {"measurement": "relative viability", "setting": "[12]; first compound 0.4 µM", "result": 0.212}, {"measurement": "relative viability", "setting": "[12]; first compound 4 µM", "result": 0.189}, {"measurement": "relative viability", "setting": "[13]; first compound 0.04 µM", "result": 0.539}, {"measurement": "relative viability", "setting": "[13]; first compound 0.1265 µM", "result": 0.481}, {"measurement": "relative viability", "setting": "[13]; first compound 0.4 µM", "result": 0.305}, {"measurement": "relative viability", "setting": "[13]; first compound 4 µM", "result": 0.368}, {"measurement": "relative viability", "setting": "[14]; first compound 0.04 µM", "result": 0.43}, {"measurement": "relative viability", "setting": "[14]; first compound 0.1265 µM", "result": 0.3}, {"measurement": "relative viability", "setting": "[14]; first compound 0.4 µM", "result": 0.244}, {"measurement": "relative viability", "setting": "[14]; first compound 4 µM", "result": 0.181}, {"measurement": "relative viability", "setting": "[15]; first compound 0.04 µM", "result": 0.972}, {"measurement": "relative viability", "setting": "[15]; first compound 0.1265 µM", "result": 0.99}, {"measurement": "relative viability", "setting": "[15]; first compound 0.4 µM", "result": 1.14}, {"measurement": "relative viability", "setting": "[15]; first compound 4 µM", "result": 1.03}, {"measurement": "relative viability", "setting": "[16]; first compound 0.04 µM", "result": 0.259}, {"measurement": "relative viability", "setting": "[16]; first compound 0.1265 µM", "result": 0.261}, {"measurement": "relative viability", "setting": "[16]; first compound 0.4 µM", "result": 0.22}, {"measurement": "relative viability", "setting": "[16]; first compound 4 µM", "result": 0.197}, {"measurement": "relative viability", "setting": "[17]; first compound 0.04 µM", "result": 0.674}, {"measurement": "relative viability", "setting": "[17]; first compound 0.1265 µM", "result": 0.507}, {"measurement": "relative viability", "setting": "[17]; first compound 0.4 µM", "result": 0.509}, {"measurement": "relative viability", "setting": "[17]; first compound 4 µM", "result": 0.311}, {"measurement": "relative viability", "setting": "[18]; first compound 0.04 µM", "result": 0.47}, {"measurement": "relative viability", "setting": "[18]; first compound 0.1265 µM", "result": 0.467}, {"measurement": "relative viability", "setting": "[18]; first compound 0.4 µM", "result": 0.506}, {"measurement": "relative viability", "setting": "[18]; first compound 4 µM", "result": 0.369}, {"measurement": "relative viability", "setting": "[19]; first compound 0.04 µM", "result": 0.386}, {"measurement": "relative viability", "setting": "[19]; first compound 0.1265 µM", "result": 0.396}, {"measurement": "relative viability", "setting": "[19]; first compound 0.4 µM", "result": 0.379}, {"measurement": "relative viability", "setting": "[19]; first compound 4 µM", "result": 0.386}, {"measurement": "relative viability", "setting": "[20]; first compound 0.04 µM", "result": 0.481}, {"measurement": "relative viability", "setting": "[20]; first compound 0.1265 µM", "result": 0.552}, {"measurement": "relative viability", "setting": "[20]; first compound 0.4 µM", "result": 0.615}, {"measurement": "relative viability", "setting": "[20]; first compound 4 µM", "result": 0.507}, {"measurement": "relative viability", "setting": "[21]; first compound 0.04 µM", "result": 0.732}, {"measurement": "relative viability", "setting": "[21]; first compound 0.1265 µM", "result": 0.728}, {"measurement": "relative viability", "setting": "[21]; first compound 0.4 µM", "result": 0.675}, {"measurement": "relative viability", "setting": "[21]; first compound 4 µM", "result": 0.739}, {"measurement": "relative viability", "setting": "[22]; first compound 0.04 µM", "result": 0.596}, {"measurement": "relative viability", "setting": "[22]; first compound 0.1265 µM", "result": 0.611}, {"measurement": "relative viability", "setting": "[22]; first compound 0.4 µM", "result": 0.624}, {"measurement": "relative viability", "setting": "[22]; first compound 4 µM", "result": 0.447}, {"measurement": "relative viability", "setting": "[23]; first compound 0.04 µM", "result": 0.894}, {"measurement": "relative viability", "setting": "[23]; first compound 0.1265 µM", "result": 0.696}, {"measurement": "relative viability", "setting": "[23]; first compound 0.4 µM", "result": 0.892}, {"measurement": "relative viability", "setting": "[23]; first compound 4 µM", "result": 0.572}]}
